Measurements from patent US20240226343A1, “NEUROPEPTIDE Y1 RECEPTOR (NPY1R) TARGETED THERAPEUTICS AND USES THEREOF” (RADIONETICS ONCOLOGY, INC., priority 2022, published 2024).

The compounds below were run against T1, hNPY1R (Homo sapiens, UniProt P25929) (assay: NPY1R binding assay: SK-N-MC membranes, [125I]-Peptide YY (human) competition). Settings: data obtained after 60 minutes at 37° C.; SK-N-MC membranes; [125I]-Peptide YY 0.05 nM; read-out: hNPY1R binding Ki* †.
T1 construct: SK-N-MC cells endogenously expressing the NPY1R receptor; endogenous in cells; host or cells: SK-N-MC cells (crude membrane fractions)
T1 sequence (P25929 1-384): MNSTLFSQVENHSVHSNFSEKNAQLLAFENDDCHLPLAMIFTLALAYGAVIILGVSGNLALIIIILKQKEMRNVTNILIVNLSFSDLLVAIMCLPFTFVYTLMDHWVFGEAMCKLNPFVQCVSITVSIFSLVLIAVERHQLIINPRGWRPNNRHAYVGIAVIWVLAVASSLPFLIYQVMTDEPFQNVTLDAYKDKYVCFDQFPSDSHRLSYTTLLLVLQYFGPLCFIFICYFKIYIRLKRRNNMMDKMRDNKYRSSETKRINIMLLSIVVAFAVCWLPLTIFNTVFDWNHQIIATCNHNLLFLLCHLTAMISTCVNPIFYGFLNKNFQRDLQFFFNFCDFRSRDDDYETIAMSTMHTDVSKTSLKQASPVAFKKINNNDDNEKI
Protocol: Crude membrane fractions are prepared from SK-N-MC cells endogenously expressing the NPY1R receptor. The cells are grown to 85-100% confluence on standard tissue culture dishes in Eagle's Minimum Essential Medium supplemented with 10% dialyzed FBS. To prepare membranes, cells are scraped and collected in 1× Dulbecco's phosphate buffered saline and then pelleted at 1000 RPM's. The cell pellet is reconstituted in membrane preparation buffer (20 mM HEPES, 6 mM MgCl2 and 1 mM EGTA, protease inhibitor tablets, pH 7.4) and placed in a cell disruption vessel at 1000 PSI for 30 minutes on ice. The pressurized contents are then released and spun down at 1000 RPMs and the supernatant is collected and further centrifuged at 15,000 RPMs to pellet the membranes. The membrane pellet is resuspended in membrane preparation buffer, snap frozen and stored at −80° C. for later use.
[…] Assay contents are then filtered through unifilter GF/C microplates and washed with 9×400 μl of cold wash buffer (25 mM HEPES, 5 mM MgCl2, 1 mM CaCl2), 500 mM NaCl, 0.1% Tween-20, pH 7.4). Assay plates are read using a Top Count NXT and Ki values for compounds are determined using a GraphPad Prism 6 non-linear regression analysis.

| Compound | Ki [nM] |
| --- | --- |
| CCC(=O)NCCNC(=O)/N=C(/N)NCCC[C@@H](NC(=O)C(c1ccccc1)c1cccc(OCCOCCOCCOCCNC(=O)CN2CCN(CC(=O)O)CCN(CC(=O)O)CCN(CC(=O)O)CC2)c1)C(=O)NCc1ccc(O)cc1 (stereo partly drawn) [Compound 104, 2,2′,2″-(10-(14-(3-((4R,Z)-9-amino-4-((4-hydroxybenzyl)carbamoyl)-2,11,16-trioxo-1-phenyl-3,8,10,12,15-pentaazaoctadec-9-en-1-yl)phenoxy)-2-oxo-6,9,12-trioxa-3-azatetradecyl)-1,4,7,10-tetraazacyclododecane-1,4,7-triyl)triacetic acid] | < 10 |
| CCC(=O)NCCNC(=O)/N=C(/N)NCCC[C@@H](NC(=O)C(c1ccccc1)c1cccc(OCCOCCNC(=O)CN2CCN(CC(=O)O)CCN(CC(=O)O)CCN(CC(=O)O)CC2)c1)C(=O)NCc1ccc(O)cc1 (stereo partly drawn) [Compound 106, 2,2′,2″-(10-(2-((2-(2-(3-((4R,Z)-9-amino-4-((4-hydroxybenzyl)carbamoyl)-2,11,16-trioxo-1-phenyl-3,8,10,12,15-pentaazaoctadec-9-en-1-yl)phenoxy)ethoxy)ethyl)amino)-2-oxoethyl)-1,4,7,10-tetraazacyclododecane-1,4,7-triyl)triacetic acid] | < 10 |
| CCC(=O)NCCNC(=O)/N=C(/N)NCCC[C@@H](NC(=O)C(c1ccccc1)c1cccc(OCCCCNc2c(NCCNC(=O)CN3CCN(CC(=O)O)CCN(CC(=O)O)CCN(CC(=O)O)CC3)c(=O)c2=O)c1)C(=O)NCc1ccc(O)cc1 (single isomer, unassigned) [Compound 111A] | < 10 |
| CCC(=O)NCCNC(=O)/N=C(/N)NCCC[C@@H](NC(=O)C(c1ccccc1)c1cccc(OCCCCNC(=O)CN2CCN(C(=O)CN3CCN(CC(=O)O)CCN(CC(=O)O)CCN(CC(=O)O)CC3)CC2)c1)C(=O)NCc1ccc(O)cc1 (single isomer, unassigned) [Compound 118B] | < 10 |
| CCC(=O)NCCNC(=O)/N=C(/N)NCCC[C@@H](NC(=O)C(c1ccccc1)c1cccc(OCCCCNC(=O)[C@H](CS(=O)(=O)O)NC(=O)CN2CCN(CC(=O)O)CCN(CC(=O)O)CCN(CC(=O)O)CC2)c1)C(=O)NCc1ccc(O)cc1 (single isomer, unassigned) [Compound 107B] | 10 to 100 |
| CCC(=O)NCCNC(=O)/N=C(/N)NCCC[C@@H](NC(=O)C(c1ccccc1)c1ccc(NC(=O)CCOCCOCCOCCOCCNC(=O)CN2CCN(CC(=O)O)CCN(CC(=O)O)CCN(CC(=O)O)CC2)cc1)C(=O)NCc1ccc(O)cc1 (single isomer, unassigned) [Compound 102B] | 10 to 100 |
| CCC(=O)NCCNC(=O)/N=C(/N)NCCC[C@@H](NC(=O)C(c1ccccc1)c1cccc(OCCCCNC(=O)CC[C@@H](NC(=O)CN2CCN(CC(=O)O)CCN(CC(=O)O)CCN(CC(=O)O)CC2)C(=O)O)c1)C(=O)NCc1ccc(O)cc1 (single isomer, unassigned) [Compound 110B] | < 10 |

Same assay, conditions: data obtained after 120 minutes at rt; SK-N-MC membranes; [125I]-Peptide YY; read-out: hNPY.R binding Ki* ††

| Compound | Ki [nM] |
| --- | --- |
| CCC(=O)NCCNC(=O)/N=C(/N)NCCC[C@@H](NC(=O)C(c1ccccc1)c1ccc(NCCCNC(=O)[C@H](N)CCCCNC(=O)CN2CCN(CC(=O)O)CCN(CC(=O)O)CCN(CC(=O)O)CC2)cc1)C(=O)NCc1ccc(O)cc1 (single isomer, unassigned) [Compound 132B] | < 10 |
| CCC(=O)NCCNC(=O)/N=C(/N)NCCC[C@@H](NC(=O)C(c1ccccc1)c1cccc(OCCCCNC(=O)CCNC(=O)CN2CCN(CC(=O)O)CCN(CC(=O)O)CCN(CC(=O)O)CC2)c1)C(=O)NCc1c(F)cc(O)cc1F (single isomer, unassigned) [Compound 162A] | < 10 |
| CCC(=O)NCCNC(=O)/N=C(/N)NCCC[C@@H](NC(=O)C(c1ccccc1)c1ccc(NCCCNC(=O)CN2CCC(NC(=O)CN3CCN(CC(=O)O)CCN(CC(=O)O)CCN(CC(=O)O)CC3)CC2)cc1)C(=O)NCc1ccc(O)cc1 (single isomer, unassigned) [Compound 133B] | < 10 |
| CCC(=O)NCCNC(=O)/N=C(/N)NCCC[C@@H](NC(=O)C(c1ccccc1)c1ccc(OCCCNc2c(NCCNC(=O)CN3CCN(CC(=O)O)CCN(CC(=O)O)CCN(CC(=O)O)CC3)c(=O)c2=O)cc1)C(=O)NCc1ccc(O)cc1 (single isomer, unassigned) [Compound 136B] | < 10 |
| CCNC(=O)/N=C(/N)NCCC[C@@H](NC(=O)C(c1ccccc1)c1ccc(NCCCNC(=O)[C@@H](CCCNC(=N)N)NC(=O)[C@@H](Cc2ccc(-c3ccccc3)cc2)NC(=O)CN2CCN(CC(=O)O)CCN(CC(=O)O)CCN(CC(=O)O)CC2)cc1)C(=O)NCc1ccc(O)cc1 (single isomer, unassigned) [Compound 152] | < 10 |

The next lines start with the values.

| Ki [nM] | Compound |
| --- | --- |
| < 10 | CCC(=O)NCCNC(=O)/N=C(/N)NCCC[C@@H](NC(=O)C(c1ccccc1)c1cccc(OCCCCNc2c(NCCNC(=O)[C@@H](CN)NC(=O)CN3CCN(CC(=O)O)CCN(CC(=O)O)CCN(CC(=O)O)CC3)c(=O)c2=O)c1)C(=O)NCc1ccc(O)cc1 (stereo in doubt) [Compound 115B-In, Indium (III) 2,2′,2″-(10-(2-(((R)-3-amino-1-((2-((2-((4-(3-((R,Z)-9-amino-4-((4-hydroxybenzyl)carbamoyl)-2,11,16-trioxo-1-phenyl-3,8,10,12,15-pentaazaoctadec-9-en-1-yl)phenoxy)butyl)amino)-3,4-dioxocyclobut-1-en-1-yl)amino)ethyl)amino)-1-oxopropan-2-yl)amino)-2-oxoethyl)-1,4,7,10-tetraaza-cyclododecane-1,4,7-triyl)triacetate] |
| < 10 | CCC(=O)NCCNC(=O)/N=C(/N)NCCC[C@@H](NC(=O)C(c1ccccc1)c1ccc(NCCCNC(=O)[C@H](N)CCCNC(=O)CN2CCC(NC(=O)CN3CCN(CC(=O)O)CCN(CC(=O)O)CCN(CC(=O)O)CC3)CC2)cc1)C(=O)NCc1ccc(O)cc1 (single isomer, unassigned) [Compound 146B] |
| < 10 | CCC(=O)NCCNC(=O)/N=C(/N)NCCC[C@@H](NC(=O)C(c1ccccc1)c1ccc(NCCCNC(=O)[C@H](N)CCC(=O)NCCN(C)CCNC(=O)CN2CCN(CC(=O)O)CCN(CC(=O)O)CCN(CC(=O)O)CC2)cc1)C(=O)NCc1ccc(O)cc1 (single isomer, unassigned) [Compound 145B] |
| < 10 | CCC(=O)NCCNC(=O)/N=C(/N)NCCC[C@@H](NC(=O)C(c1ccccc1)c1cccc(OCCCCNC(=O)C[C@H]2NC(=O)[C@@H](CCCNC(=O)CN3CCN(CC(=O)O)CCN(CC(=O)O)CCN(CC(=O)O)CC3)NC2=O)c1)C(=O)NCc1c(F)cc(O)cc1F (single isomer, unassigned) [Compound 164A] |
| < 10 | CCC(=O)NCCNC(=O)/N=C(/N)NCCC[C@@H](NC(=O)C(c1ccccc1)c1cccc(NCCCNc2c(NCCNC(=O)CN3CCN(CC(=O)O)CCN(CC(=O)O)CCN(CC(=O)O)CC3)c(=O)c2=O)c1)C(=O)NCc1ccc(O)cc1 (single isomer, unassigned) [Compound 120A] |
| < 10 | CCC(=O)NCCNC(=O)/N=C(/N)NCCC[C@@H](NC(=O)C(c1ccccc1)c1cccc(OCCCCNC(=O)[C@@H](CCCNC(=N)N)NC(=O)CCNC(=O)CN2CCN(CC(=O)O)CCN(CC(=O)O)CCN(CC(=O)O)CC2)c1)C(=O)NCc1ccc(O)cc1 (single isomer, unassigned) [Compound 141A] |
| < 10 | CCC(=O)NCCNC(=O)/N=C(/N)NCCC[C@@H](NC(=O)C(c1ccccc1)c1ccc(NCCCNC(=O)[C@H](N)CCC(=O)NCCN(C)CCNC(=O)CN2CCN(CC(=O)O)CCN(CC(=O)O)CCN(CC(=O)O)CC2)cc1)C(=O)NCc1ccc(O)cc1 (single isomer, unassigned) [Compound 145A] |
| < 10 | CCC(=O)NCCNC(=O)/N=C(/N)NCCC[C@@H](NC(=O)C(c1ccccc1)c1cccc(OCCCCNC(=O)[C@H](N)CCCCNC(=O)c2ccc(CNC(=O)CN3CCN(CC(=O)O)CCN(CC(=O)O)CCN(CC(=O)O)CC3)cc2)c1)C(=O)NCc1ccc(O)cc1 (single isomer, unassigned) [Compound 142B] |
| < 10 | CCC(=O)NCCNC(=O)/N=C(/N)NCCC[C@@H](NC(=O)C(c1ccccc1)c1cccc(OCCCCNc2c(NCCNC(=O)[C@@H](CCCCN)NC(=O)CN3CCN(CC(=O)O)CCN(CC(=O)O)CCN(CC(=O)O)CC3)c(=O)c2=O)c1)C(=O)NCc1ccc(O)cc1 (stereo in doubt) [Compound 116B-In, indium (III) 2,2′,2″-(10-(2-((6-amino-1-((2-((2-((4-(3-((R,Z)-9-amino-4-((4-hydroxybenzyl)carbamoyl)-2,11,16-trioxo-1-phenyl-3,8,10,12,15-pentaazaoctadec-9-en-1-yl)phenoxy)butyl)amino)-3,4-dioxocyclobut-1-en-1-yl)amino)ethyl)amino)-1-oxohexan-2-yl)amino)-2-oxoethyl)-1,4,7,10-tetraazacyclododecane-1,4,7-triyl)triacetate] |
